Measured values taken from patent US4587340A, “Biopterin analogs” (Burroughs Wellcome Co., priority 1984, dated 1986).

Experiments:
[1] = molecular target: T1, Phenylalanine hydroxylase (Rattus norvegicus, UniProt P04176); assay: Phenylalanine hydroxylase cofactor assay; format: biochemical; settings: for Phenylalanine hydroxylase Vmax: tetrahydrobiopterin = 100
T1 construct: Phenylalanine hydroxylase was prepared from rat liver using hydrophobic chromatography; from tissue; host or cells: rat liver
T1 sequence (P04176 1-453): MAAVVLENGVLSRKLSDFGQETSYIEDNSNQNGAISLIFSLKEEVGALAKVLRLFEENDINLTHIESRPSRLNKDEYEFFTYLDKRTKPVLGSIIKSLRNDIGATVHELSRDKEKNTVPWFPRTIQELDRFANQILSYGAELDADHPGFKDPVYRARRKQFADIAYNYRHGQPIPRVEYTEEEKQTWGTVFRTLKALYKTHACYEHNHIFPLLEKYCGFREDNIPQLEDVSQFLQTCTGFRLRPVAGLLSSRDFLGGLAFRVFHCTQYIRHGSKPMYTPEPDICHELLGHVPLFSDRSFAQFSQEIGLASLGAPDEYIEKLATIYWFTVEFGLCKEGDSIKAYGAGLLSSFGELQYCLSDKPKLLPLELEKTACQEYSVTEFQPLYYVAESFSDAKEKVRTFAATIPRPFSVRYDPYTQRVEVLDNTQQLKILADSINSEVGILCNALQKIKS

Tryptophan hydroxylase = molecular target: T2, Tryptophan hydroxylase (Rattus norvegicus, UniProt Q8CGU9); assay: Tryptophan hydroxylase cofactor assay; format: biochemical; settings: for Tryptophan hydroxylase Vmax: tetrahydrobiopterin = 100; for Activity for tryptophan hydroxylase: in words
T2 construct: The preparation of tryptophan hydroxylase was a crude 30,000xg supernatant; from tissue
T2 sequence (Q8CGU9 1-485): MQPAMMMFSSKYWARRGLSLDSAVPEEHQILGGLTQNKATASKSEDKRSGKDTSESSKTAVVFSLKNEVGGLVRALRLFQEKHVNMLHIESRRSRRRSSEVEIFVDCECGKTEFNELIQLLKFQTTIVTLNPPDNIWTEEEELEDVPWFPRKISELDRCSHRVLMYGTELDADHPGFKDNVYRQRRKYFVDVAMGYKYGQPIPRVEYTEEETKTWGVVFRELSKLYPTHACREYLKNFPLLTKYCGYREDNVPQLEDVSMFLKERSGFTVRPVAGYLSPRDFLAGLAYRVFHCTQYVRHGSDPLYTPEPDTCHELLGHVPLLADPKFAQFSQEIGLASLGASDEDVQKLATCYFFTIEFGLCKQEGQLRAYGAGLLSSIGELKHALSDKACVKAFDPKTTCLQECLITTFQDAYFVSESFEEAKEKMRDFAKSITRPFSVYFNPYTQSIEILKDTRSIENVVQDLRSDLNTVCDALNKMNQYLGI
Experimental: Tryptophan hydroxylase was assayed according to a modification of the method of Renson J., et al (Biochem. Biophys. Acta 25: 504 (1966)).

bovine liver DHFR = molecular target: T3, bovine liver DHFR (Bos taurus, UniProt P00376); assay: Dihydrofolate reductase assay; format: biochemical; settings: for Dihydrofolate reductase V: 7,8-dihydro form of the pterin, 7,8-dihydrobiopterin = 100
T3 construct: from tissue; host or cells: bovine liver
T3 sequence (P00376 1-187): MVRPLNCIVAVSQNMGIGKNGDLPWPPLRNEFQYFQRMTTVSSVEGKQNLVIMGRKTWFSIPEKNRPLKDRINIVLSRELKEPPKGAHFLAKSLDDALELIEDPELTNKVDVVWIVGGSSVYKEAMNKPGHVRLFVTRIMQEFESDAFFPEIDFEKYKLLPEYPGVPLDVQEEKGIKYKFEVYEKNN
Experimental: These assays were carried out on the 7,8-dihydropterin analogs of the compounds of formula I which were tetrahydropterins. The 7,8-dihydropterins were obtained commercially (in the case of dihydrobiopterin) or synthesized from the corresponding compound of formula I. Synthesis of 7,8-dihydropterins involved the combination of 0.27 μmole of a compound of formula I, 20 μg of horseradish peroxidase, 0.6 μmole of hydrogen peroxide in 0.1 ml of 0.5M potassium phosphate buffer, pH 7.5. After 3 min at room temperature, 10 μg of bovine liver catalase was added. The production of the 7,8-dihydropterin was verified by U.V. spectroscopy.
The assay was carried out with bovine liver DHFR using a modification of the method of Bailey and Ayling (J. Biol. Chem., 253, 1598 (1978)) where the desired dihydropterin replaced dihydrobiopterin, and the HPLC system used consisted of an anaerobic 0.1M acetic acid (with or without 10% acetonitrite) solvent on a 25 cm×4.6 mm Dupont TMS-Zorbax column. In our hands, dihydrobiopterin is reduced at a rate 2.5% that of the natural substrate dihydrofolate.

Tyrosine hydroxylase = Tyrosine hydroxylase (Homo sapiens, UniProt P07101); assay: Tyrosine hydroxylase cofactor assay; format: biochemical
Experimental: Tyrosine hydroxylase was partially purified through a 25-45% ammonium sulfate fraction. […] The enzyme was assayed by a modification of the method of Nagatsu, T., Levitt, M., and Udenfriend, S. (Anal. Biochem. 9, 122, (1964)) where the Dowex chromatography step was replaced by a charcoal extraction.

[2] = molecular target: T4, Dihydropteridine reductase (Homo sapiens, UniProt P09417); assay: Dihydropteridine reductase assay; format: biochemical; settings: quinonoid dihydro form; biopterin form = 100
T4 sequence (P09417 1-244): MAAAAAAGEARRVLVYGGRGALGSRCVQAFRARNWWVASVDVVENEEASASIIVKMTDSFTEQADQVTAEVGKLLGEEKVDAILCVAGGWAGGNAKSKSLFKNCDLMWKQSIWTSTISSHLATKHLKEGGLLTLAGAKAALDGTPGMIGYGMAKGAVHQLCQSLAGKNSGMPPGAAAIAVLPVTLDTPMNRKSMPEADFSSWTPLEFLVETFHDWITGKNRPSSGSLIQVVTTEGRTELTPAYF
Experimental: Dihydropteridine reductase was assayed by the method of Craine, et al., (J. Biol. Chem., 247, 6082 (1972)).

[3] = background statement; cited from earlier work
[4] = background statement; cited from earlier work; remark: listed apart in the source
[5] = tested on: striatal dopamine synthesis, noradrenaline synthesis in peripheral nerves; settings: administration of BH4; cited from earlier work
Parkinson's disease = settings: BH4 administration; cited from earlier work
depression = settings: several patients; cited from earlier work
atypical PKU = settings: large quantities; cited from earlier work

Sequence of Tyrosine hydroxylase (P07101 whole entry): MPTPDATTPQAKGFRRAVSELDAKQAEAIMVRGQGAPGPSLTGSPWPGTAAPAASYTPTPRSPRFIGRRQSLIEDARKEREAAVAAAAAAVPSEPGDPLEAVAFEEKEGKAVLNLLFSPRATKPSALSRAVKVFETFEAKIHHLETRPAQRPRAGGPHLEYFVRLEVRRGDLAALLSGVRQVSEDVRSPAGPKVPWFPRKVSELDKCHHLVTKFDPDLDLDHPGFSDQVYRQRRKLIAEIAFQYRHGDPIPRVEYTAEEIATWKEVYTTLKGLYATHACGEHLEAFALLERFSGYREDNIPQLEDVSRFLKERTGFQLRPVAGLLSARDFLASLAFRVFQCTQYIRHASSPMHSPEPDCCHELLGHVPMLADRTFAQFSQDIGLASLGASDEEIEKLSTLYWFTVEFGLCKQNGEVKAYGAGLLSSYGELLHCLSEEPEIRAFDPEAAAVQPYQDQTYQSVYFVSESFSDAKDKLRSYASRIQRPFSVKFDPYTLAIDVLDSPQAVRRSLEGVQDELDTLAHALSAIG

COCC1CNc2nc(N)[nH]c(=O)c2N1 (racemic) [6-Methoxymethyl-tetrahydropterin, (+-)-2-Amino-5,6,7,8-tetrahydro-6-methoxymethyl-4(3H)-pteridinone]
Phenylalanine hydroxylase Vmax [1]: 79%
Tryptophan hydroxylase Vmax (Tryptophan hydroxylase): 54%
Dihydrofolate reductase V (bovine liver DHFR): 800%

CCOCC1CNc2nc(N)[nH]c(=O)c2N1 (racemic) [R=C2 H5, (+-)-2-Amino-5,6,7,8-tetrahydro-6-ethoxymethyl-4(3H)-pteridinone]
Activity for tyrosine hydroxylase (Tyrosine hydroxylase; in words): active
Activity for phenylalanine hydroxylase ([1]; in words): active
Activity for tryptophan hydroxylase (Tryptophan hydroxylase): active

CCCCOCC1CNc2nc(N)[nH]c(=O)c2N1 (racemic) [R=C4 H9, (+-)-2-Amino-5,6,7,8-tetrahydro-6-n-butoxymethyl-4(3H)-pteridinone]
Specificity for tyrosine hydroxylase (Tyrosine hydroxylase; versus tryptophan and phenylalanine hydroxylases): greatest specificity
Activity for phenylalanine hydroxylase ([1]; in words): successively less active
Activity for tryptophan hydroxylase (Tryptophan hydroxylase): successively less active

CC(O)C(O)C1=Nc2c(nc(N)[nH]c2=O)NC1 (stereo not drawn) [7,8-Dihydrobiopterin]
Rate of reduction by DHFR relative to dihydrofolate, the natural substrate (bovine liver DHFR; bovine liver DHFR): 2.5%

CCCCCCCCOCC1CNc2nc(N)[nH]c(=O)c2N1 (stereo not drawn) [C8 H17]
Activity for phenylalanine hydroxylase ([1]; in words): successively less active
Activity for tryptophan hydroxylase (Tryptophan hydroxylase): successively less active

CCCOCC1CNc2nc(N)[nH]c(=O)c2N1 (stereo not drawn) [R=C3 H7]
Activity for phenylalanine hydroxylase ([1]; in words): successively less active
Activity for tryptophan hydroxylase (Tryptophan hydroxylase): successively less active

C[C@H](O)[C@H](O)[C@H]1CNc2nc(N)[nH]c(=O)c2N1 [Tetrahydrobiopterin]
Specific activity of tyrosine hydroxylase preparation with the cofactor (Tyrosine hydroxylase; 25-45% ammonium sulfate fraction): 4.0 nmole/mg protein (min)
Tyrosine hydroxylase Vmax (Tyrosine hydroxylase; tetrahydrobiopterin = 100): 100%
Specific activity of phenylalanine hydroxylase with the co-factor ([1]; 37°, rat liver enzyme): 1.0 μmol/mg protein per minute
Substrate inhibition of phenylalanine hydroxylase by large amounts of phenylalanine ([1]; in words): large amounts of phenylalanine inhibit phenylalanine hydroxylase
Phenylalanine hydroxylase Vmax [1]: 100%
Specific activity of tryptophan hydroxylase with the cofactor (Tryptophan hydroxylase; 37°, crude 30,000xg supernatant): approximately 100 pmol product per milligram protein per minute
Tryptophan hydroxylase Vmax (Tryptophan hydroxylase): 100%
Dihydropteridine reductase Vmax [2]: 100%
Dihydrofolate reductase V (bovine liver DHFR): 100%
Brain penetration [3]: penetrates brain poorly
Stability [4]: unstable
Noradrenaline synthesis in peripheral nerves [5]: nearly double
Striatal dopamine synthesis [5]: nearly double
Symptoms of Parkinson's disease (Parkinson's disease): improve the symptoms of Parkinson's disease
Symptoms of depression (depression): improve the symptoms of depression
Treatment of atypical PKU (atypical PKU): successfully treated
